Experiments:
HaCaT keratinocyte lines = test: Cytotoxicity test: cell proliferation by MTT analysis (Ez-cytox kit); conditions: HaCaT keratinocytes, 3.9 to 500 μM, 48 hours, vs non-treated negative control
NIH3T3 fibroblast lines = test: as above; conditions: NIH3T3 fibroblasts, 3.9 to 500 μM, 48 hours, vs non-treated negative control

Structure (SMILES): CN(Cc1cnc2nc(N)nc(N)c2n1)c1ccc(C(=O)N[C@@H](CCC(=O)O)C(=O)O)cc1 [methotrexate, Methotrexate]
- cytotoxicity (inhibition of cell proliferation) (HaCaT keratinocyte lines): exhibited a significant degree of cytotoxicity
- cytotoxicity (inhibition of cell proliferation) (NIH3T3 fibroblast lines): exhibited a significant degree of cytotoxicity
